Assay results taken from patent US11945822B2, “Pyrazolo-triazine and/or pyrazolo-pxrimidine derivatives as selective inhibitor of cyclin dependent kinase” (QURIENT CO., LTD., priority 2018, dated 2024).

Target: T1, CDK7/Cyclin H/MNAT1 (Homo sapiens, UniProt P50613)
T1 construct: purchased Invitrogen PR6749B
Experiment: Enzymatic assay for CDK7 (FRET based LANCE Ultra kinase assay)
Type: biochemical
Settings: not given
Summary of the method: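 LANCE Ultra TR-FRET kinase assay using a ULight-labeled peptide substrate and a Eu-labeled anti-phospho antibody, with ATP at its Km. Purified CDK/cyclin complex was added to compound after brief centrifugation.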

T1 sequence (P50613 whole entry): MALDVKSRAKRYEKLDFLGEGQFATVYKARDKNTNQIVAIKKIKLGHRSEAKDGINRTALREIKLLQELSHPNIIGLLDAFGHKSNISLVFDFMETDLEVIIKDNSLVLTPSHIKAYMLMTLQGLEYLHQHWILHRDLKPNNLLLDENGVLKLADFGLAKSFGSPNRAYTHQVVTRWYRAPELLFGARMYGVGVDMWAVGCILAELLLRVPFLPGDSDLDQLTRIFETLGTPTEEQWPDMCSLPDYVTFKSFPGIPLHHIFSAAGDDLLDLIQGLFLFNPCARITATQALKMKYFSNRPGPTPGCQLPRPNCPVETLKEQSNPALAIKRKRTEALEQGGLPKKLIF
T1 sequence (P51946 whole entry partner): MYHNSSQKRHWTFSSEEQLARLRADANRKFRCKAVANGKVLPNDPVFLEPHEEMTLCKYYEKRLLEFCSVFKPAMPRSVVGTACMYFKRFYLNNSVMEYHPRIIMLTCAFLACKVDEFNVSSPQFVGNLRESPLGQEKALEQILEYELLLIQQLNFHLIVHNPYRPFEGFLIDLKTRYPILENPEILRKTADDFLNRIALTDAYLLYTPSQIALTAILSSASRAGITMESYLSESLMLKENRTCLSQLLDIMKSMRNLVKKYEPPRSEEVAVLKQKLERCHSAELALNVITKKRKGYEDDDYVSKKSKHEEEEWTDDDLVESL
T1 sequence (P51948 whole entry partner): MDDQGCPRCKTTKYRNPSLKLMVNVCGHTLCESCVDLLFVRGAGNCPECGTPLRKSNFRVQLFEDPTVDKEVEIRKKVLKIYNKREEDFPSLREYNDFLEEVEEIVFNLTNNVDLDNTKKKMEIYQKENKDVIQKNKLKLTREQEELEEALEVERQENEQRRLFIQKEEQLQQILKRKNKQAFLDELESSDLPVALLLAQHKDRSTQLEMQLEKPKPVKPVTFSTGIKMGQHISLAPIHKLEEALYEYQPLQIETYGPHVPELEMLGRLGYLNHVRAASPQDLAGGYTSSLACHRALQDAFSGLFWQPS

| IC50 | Structure (SMILES) |
| --- | --- |
| < 100 nM | CC(C)c1cnn2c(NCc3ccccc3-n3ccc(-c4ccccc4)n3)nc(N3CCC(N)CC3)nc12 [Compound 99] |

Same assay, conditions: CDK7 over CDK1

| CDK1/CDK7: Selectivity of CDK7 inhibition over CDK1 inhibition | Structure (SMILES) |
| --- | --- |
| A (A=greater than 200 fold) | CC(C)c1cnn2c(NCc3ccccc3-n3cccn3)nc(N3CCC(C)(N)CC3)nc12 [Compound 27] |
| A (A=greater than 200 fold) | CC(C)c1cnn2c(NCc3ccccc3-c3ncc4ccccc4n3)nc(N3CCC(N)CC3)nc12 [Compound 77] |
| A (A=greater than 200 fold) | CC(C)c1cnn2c(NCc3ccccc3-c3cc4ccccc4cn3)nc(N3CCC(N)CC3)nc12 [Compound 78] |
| A (A=greater than 200 fold) | CC(C)c1cnn2c(NCc3ccccc3-c3cnc4ccccc4n3)nc(N3CCC(N)CC3)nc12 [Compound 80] |
| A (A=greater than 200 fold) | CC(C)c1cnn2c(NCc3ccccc3-n3ccc(-c4ccccc4)n3)nc(N3CCC(N)CC3)nc12 [Compound 99] |

| Structure (SMILES) | CDK1/CDK7: Selectivity of CDK7 inhibition over CDK1 inhibition |
| --- | --- |
| NC1CCN(c2nc(NCc3ccccc3-n3cccn3)n3ncc(Br)c3n2)CC1 [Compound 18] | B (B=less than 200 fold, but greater than 20 fold) |

Same assay, conditions: CDK7 over CDK2

| Structure (SMILES) | CDK2/CDK7: Selectivity of CDK7 inhibition over CDK2 inhibition |
| --- | --- |
| NC1CCN(c2nc(NCc3ccccc3-n3cccn3)n3ncc(Br)c3n2)CC1 [Compound 18] | B (B=less than 200 fold, but greater than 20 fold) |
| CC(C)c1cnn2c(NCc3ccccc3-n3cccn3)nc(N3CCC(C)(N)CC3)nc12 [Compound 27] | B (B=less than 200 fold, but greater than 20 fold) |
| CC(C)c1cnn2c(NCc3ccccc3-c3ncc4ccccc4n3)nc(N3CCC(N)CC3)nc12 [Compound 77] | B (B=less than 200 fold, but greater than 20 fold) |
| CC(C)c1cnn2c(NCc3ccccc3-c3cc4ccccc4cn3)nc(N3CCC(N)CC3)nc12 [Compound 78] | B (B=less than 200 fold, but greater than 20 fold) |
| CC(C)c1cnn2c(NCc3ccccc3-c3cnc4ccccc4n3)nc(N3CCC(N)CC3)nc12 [Compound 80] | B (B=less than 200 fold, but greater than 20 fold) |
| CC(C)c1cnn2c(NCc3ccccc3-n3ccc(-c4ccccc4)n3)nc(N3CCC(N)CC3)nc12 [Compound 99] | A (A=greater than 200 fold) |

Same assay, conditions: CDK7 over CDK5

| Structure (SMILES) | CDK5/CDK7: Selectivity of CDK7 inhibition over CDK5 inhibition |
| --- | --- |
| NC1CCN(c2nc(NCc3ccccc3-n3cccn3)n3ncc(Br)c3n2)CC1 [Compound 18] | C (C=less than 20 fold) |
| CC(C)c1cnn2c(NCc3ccccc3-n3cccn3)nc(N3CCC(C)(N)CC3)nc12 [Compound 27] | B (B=less than 200 fold, but greater than 20 fold) |
| CC(C)c1cnn2c(NCc3ccccc3-c3ncc4ccccc4n3)nc(N3CCC(N)CC3)nc12 [Compound 77] | B (B=less than 200 fold, but greater than 20 fold) |
| CC(C)c1cnn2c(NCc3ccccc3-c3cc4ccccc4cn3)nc(N3CCC(N)CC3)nc12 [Compound 78] | B (B=less than 200 fold, but greater than 20 fold) |
| CC(C)c1cnn2c(NCc3ccccc3-c3cnc4ccccc4n3)nc(N3CCC(N)CC3)nc12 [Compound 80] | B (B=less than 200 fold, but greater than 20 fold) |
| CC(C)c1cnn2c(NCc3ccccc3-n3ccc(-c4ccccc4)n3)nc(N3CCC(N)CC3)nc12 [Compound 99] | B (B=less than 200 fold, but greater than 20 fold) |

Same assay, conditions: read-out: CDK7 enzymatic activity (IC50 range)

| IC50 | Structure (SMILES) |
| --- | --- |
| < 100 nM | NC1CCN(c2nc(NCc3ccccc3-n3cccn3)n3ncc(Br)c3n2)CC1 [Compound 18] |
| < 100 nM | CC(C)c1cnn2c(NCc3ccccc3-n3cccn3)nc(N3CCC(C)(N)CC3)nc12 [Compound 27] |
| < 100 nM | CC(C)c1cnn2c(NCc3ccccc3-c3ncc4ccccc4n3)nc(N3CCC(N)CC3)nc12 [Compound 77] |
| < 100 nM | CC(C)c1cnn2c(NCc3ccccc3-c3cc4ccccc4cn3)nc(N3CCC(N)CC3)nc12 [Compound 78] |
| < 100 nM | CC(C)c1cnn2c(NCc3ccccc3-c3cnc4ccccc4n3)nc(N3CCC(N)CC3)nc12 [Compound 80] |

Target: T2, CDK1/Cyclin B (Homo sapiens, UniProt P06493)
T2 construct: purchased Invitrogen PR4768C
Experiment: Enzymatic assay for CDK1 (FRET based LANCE Ultra kinase assay)
Type: biochemical
Settings: read-out: CDK1 enzymatic activity (IC50 range)
Summary of the method: (§1)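 LANCE Ultra TR-FRET: ULight-MBP peptide (68 nM) with ATP at Km, […], 60 min at 23° C. EDTA plus Eu-anti-phospho-MBP added, another 60 min, then 665/615 nm emission read. Compounds tested as 8-dose 4-fold DMSO dilutions.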

T2 sequence (P06493 whole entry): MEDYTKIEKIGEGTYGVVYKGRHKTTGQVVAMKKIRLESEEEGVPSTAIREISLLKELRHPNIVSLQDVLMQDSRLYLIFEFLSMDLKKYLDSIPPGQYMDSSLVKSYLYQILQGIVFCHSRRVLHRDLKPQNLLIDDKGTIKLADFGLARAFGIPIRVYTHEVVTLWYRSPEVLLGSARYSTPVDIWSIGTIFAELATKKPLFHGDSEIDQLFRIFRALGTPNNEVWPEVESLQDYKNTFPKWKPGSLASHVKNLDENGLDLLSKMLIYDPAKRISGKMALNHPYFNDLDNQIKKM
T2 sequence (P14635 whole entry partner): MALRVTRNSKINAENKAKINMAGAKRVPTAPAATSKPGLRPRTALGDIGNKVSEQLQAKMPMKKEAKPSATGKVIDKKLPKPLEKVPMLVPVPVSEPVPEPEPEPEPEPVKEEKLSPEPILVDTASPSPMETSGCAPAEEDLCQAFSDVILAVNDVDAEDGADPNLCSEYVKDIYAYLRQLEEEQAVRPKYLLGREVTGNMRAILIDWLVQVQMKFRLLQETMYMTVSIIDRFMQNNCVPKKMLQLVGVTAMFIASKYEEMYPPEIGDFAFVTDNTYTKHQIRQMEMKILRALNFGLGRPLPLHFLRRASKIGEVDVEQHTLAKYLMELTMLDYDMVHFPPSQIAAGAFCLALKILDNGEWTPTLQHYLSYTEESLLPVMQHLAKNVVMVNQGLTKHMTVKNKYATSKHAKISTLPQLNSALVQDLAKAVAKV

| IC50 | Structure (SMILES) |
| --- | --- |
| 100 to 1000 nM | NC1CCN(c2nc(NCc3ccccc3-n3cccn3)n3ncc(Br)c3n2)CC1 [Compound 18] |
| 100 to 1000 nM | CC(C)c1cnn2c(NCc3ccccc3-n3cccn3)nc(N3CCC(C)(N)CC3)nc12 [Compound 27] |
| 100 to 1000 nM | CC(C)c1cnn2c(NCc3ccccc3-c3ncc4ccccc4n3)nc(N3CCC(N)CC3)nc12 [Compound 77] |
| 100 to 1000 nM | CC(C)c1cnn2c(NCc3ccccc3-c3cc4ccccc4cn3)nc(N3CCC(N)CC3)nc12 [Compound 78] |
| 100 to 1000 nM | CC(C)c1cnn2c(NCc3ccccc3-c3cnc4ccccc4n3)nc(N3CCC(N)CC3)nc12 [Compound 80] |
| > 1000 nM | CC(C)c1cnn2c(NCc3ccccc3-n3ccc(-c4ccccc4)n3)nc(N3CCC(N)CC3)nc12 [Compound 99] |

Tested on: RPMI-8226
Experiment: Cellular RPMI-8226 viability assay (CellTiter-Glo, 72 hours)
Type: cell-based
Settings: Homo sapiens
Summary of the method: (§2)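 Steps: seed cells at per-line density; add compound, DMSO vehicle kept under 0.1% final; incubate 72 h, 37 °C, 5% CO2; lyse with CellTiter-Glo and read luminescence; run in duplicate.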

| IC50 | Structure (SMILES) |
| --- | --- |
| < 1000 nM | NC1CCN(c2nc(NCc3ccccc3-n3cccn3)n3ncc(Br)c3n2)CC1 [Compound 18] |
| < 1000 nM | CC(C)c1cnn2c(NCc3ccccc3-n3cccn3)nc(N3CCC(C)(N)CC3)nc12 [Compound 27] |
| < 1000 nM | CC(C)c1cnn2c(NCc3ccccc3-c3ncc4ccccc4n3)nc(N3CCC(N)CC3)nc12 [Compound 77] |
| < 1000 nM | CC(C)c1cnn2c(NCc3ccccc3-c3cc4ccccc4cn3)nc(N3CCC(N)CC3)nc12 [Compound 78] |
| < 1000 nM | CC(C)c1cnn2c(NCc3ccccc3-c3cnc4ccccc4n3)nc(N3CCC(N)CC3)nc12 [Compound 80] |
| 1000 to 10000 nM | CC(C)c1cnn2c(NCc3ccccc3-n3ccc(-c4ccccc4)n3)nc(N3CCC(N)CC3)nc12 [Compound 99] |

Tested on: HCT116
Experiment: Cellular HCT116 viability assay (CellTiter-Glo, 72 hours)
Type: cell-based
Settings: Homo sapiens, HCT-116
Summary of the method: as §2

| IC50 | Structure (SMILES) |
| --- | --- |
| < 1000 nM | NC1CCN(c2nc(NCc3ccccc3-n3cccn3)n3ncc(Br)c3n2)CC1 [Compound 18] |
| < 1000 nM | CC(C)c1cnn2c(NCc3ccccc3-n3cccn3)nc(N3CCC(C)(N)CC3)nc12 [Compound 27] |
| < 1000 nM | CC(C)c1cnn2c(NCc3ccccc3-c3cnc4ccccc4n3)nc(N3CCC(N)CC3)nc12 [Compound 80] |
| < 1000 nM | CC(C)c1cnn2c(NCc3ccccc3-n3ccc(-c4ccccc4)n3)nc(N3CCC(N)CC3)nc12 [Compound 99] |

Target: T3, CDK2/Cyclin A (Homo sapiens, UniProt P24941)
T3 construct: purchased Invitrogen PV6290
Experiment: Enzymatic assay for CDK2 (FRET based LANCE Ultra kinase assay)
Type: biochemical
Settings: read-out: CDK2 enzymatic activity (IC50 range)
Summary of the method: as §1

| IC50 | Structure (SMILES) |
| --- | --- |
| 100 to 1000 nM | NC1CCN(c2nc(NCc3ccccc3-n3cccn3)n3ncc(Br)c3n2)CC1 [Compound 18] |
| 100 to 1000 nM | CC(C)c1cnn2c(NCc3ccccc3-n3cccn3)nc(N3CCC(C)(N)CC3)nc12 [Compound 27] |
| 100 to 1000 nM | CC(C)c1cnn2c(NCc3ccccc3-c3ncc4ccccc4n3)nc(N3CCC(N)CC3)nc12 [Compound 77] |
| 100 to 1000 nM | CC(C)c1cnn2c(NCc3ccccc3-c3cc4ccccc4cn3)nc(N3CCC(N)CC3)nc12 [Compound 78] |
| 100 to 1000 nM | CC(C)c1cnn2c(NCc3ccccc3-c3cnc4ccccc4n3)nc(N3CCC(N)CC3)nc12 [Compound 80] |
| > 1000 nM | CC(C)c1cnn2c(NCc3ccccc3-n3ccc(-c4ccccc4)n3)nc(N3CCC(N)CC3)nc12 [Compound 99] |

Tested on: MV4-11
Experiment: Cellular MV4-11 viability assay (CellTiter-Glo, 72 hours)
Type: cell-based
Settings: Homo sapiens
Summary of the method: as §2

| IC50 | Structure (SMILES) |
| --- | --- |
| < 1000 nM | NC1CCN(c2nc(NCc3ccccc3-n3cccn3)n3ncc(Br)c3n2)CC1 [Compound 18] |
| < 1000 nM | CC(C)c1cnn2c(NCc3ccccc3-n3cccn3)nc(N3CCC(C)(N)CC3)nc12 [Compound 27] |
| < 1000 nM | CC(C)c1cnn2c(NCc3ccccc3-c3ncc4ccccc4n3)nc(N3CCC(N)CC3)nc12 [Compound 77] |
| < 1000 nM | CC(C)c1cnn2c(NCc3ccccc3-c3cc4ccccc4cn3)nc(N3CCC(N)CC3)nc12 [Compound 78] |
| < 1000 nM | CC(C)c1cnn2c(NCc3ccccc3-c3cnc4ccccc4n3)nc(N3CCC(N)CC3)nc12 [Compound 80] |
| < 1000 nM | CC(C)c1cnn2c(NCc3ccccc3-n3ccc(-c4ccccc4)n3)nc(N3CCC(N)CC3)nc12 [Compound 99] |

Tested on: H460
Experiment: Cellular H460 viability assay (CellTiter-Glo, 72 hours)
Type: cell-based
Settings: Homo sapiens, NCI-H460
Summary of the method: as §2

| IC50 | Structure (SMILES) |
| --- | --- |
| < 1000 nM | NC1CCN(c2nc(NCc3ccccc3-n3cccn3)n3ncc(Br)c3n2)CC1 [Compound 18] |
| < 1000 nM | CC(C)c1cnn2c(NCc3ccccc3-n3cccn3)nc(N3CCC(C)(N)CC3)nc12 [Compound 27] |
| < 1000 nM | CC(C)c1cnn2c(NCc3ccccc3-c3ncc4ccccc4n3)nc(N3CCC(N)CC3)nc12 [Compound 77] |
| < 1000 nM | CC(C)c1cnn2c(NCc3ccccc3-c3cc4ccccc4cn3)nc(N3CCC(N)CC3)nc12 [Compound 78] |
| < 1000 nM | CC(C)c1cnn2c(NCc3ccccc3-c3cnc4ccccc4n3)nc(N3CCC(N)CC3)nc12 [Compound 80] |
| < 1000 nM | CC(C)c1cnn2c(NCc3ccccc3-n3ccc(-c4ccccc4)n3)nc(N3CCC(N)CC3)nc12 [Compound 99] |

Target: T4, CDK5/p25 (Homo sapiens, UniProt Q00535)
T4 construct: purchased Invitrogen PR8543B
Experiment: Enzymatic assay for CDK5 (FRET based LANCE Ultra kinase assay)
Type: biochemical
Settings: read-out: CDK5 enzymatic activity (IC50 range)
Summary of the method: as §1

T4 sequence (Q00535 whole entry): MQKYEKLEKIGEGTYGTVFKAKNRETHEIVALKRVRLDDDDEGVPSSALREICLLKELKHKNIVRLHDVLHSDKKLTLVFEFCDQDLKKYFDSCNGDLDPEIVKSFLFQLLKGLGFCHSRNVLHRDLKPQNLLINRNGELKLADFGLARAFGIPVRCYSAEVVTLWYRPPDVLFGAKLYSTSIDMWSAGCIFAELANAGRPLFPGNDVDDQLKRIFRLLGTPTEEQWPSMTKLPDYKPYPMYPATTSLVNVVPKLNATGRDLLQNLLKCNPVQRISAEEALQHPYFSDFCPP
T4 sequence (Q15078 99-307 partner limits assumed): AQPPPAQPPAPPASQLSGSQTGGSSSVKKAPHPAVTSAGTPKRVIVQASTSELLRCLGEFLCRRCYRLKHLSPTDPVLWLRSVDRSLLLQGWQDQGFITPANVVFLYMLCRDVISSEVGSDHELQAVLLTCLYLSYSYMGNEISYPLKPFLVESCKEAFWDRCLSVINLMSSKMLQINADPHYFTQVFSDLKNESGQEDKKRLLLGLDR

| IC50 | Structure (SMILES) |
| --- | --- |
| < 100 nM | NC1CCN(c2nc(NCc3ccccc3-n3cccn3)n3ncc(Br)c3n2)CC1 [Compound 18] |
| < 100 nM | CC(C)c1cnn2c(NCc3ccccc3-n3cccn3)nc(N3CCC(C)(N)CC3)nc12 [Compound 27] |
| 100 to 1000 nM | CC(C)c1cnn2c(NCc3ccccc3-c3ncc4ccccc4n3)nc(N3CCC(N)CC3)nc12 [Compound 77] |
| < 100 nM | CC(C)c1cnn2c(NCc3ccccc3-c3cc4ccccc4cn3)nc(N3CCC(N)CC3)nc12 [Compound 78] |
| < 100 nM | CC(C)c1cnn2c(NCc3ccccc3-c3cnc4ccccc4n3)nc(N3CCC(N)CC3)nc12 [Compound 80] |
| 100 to 1000 nM | CC(C)c1cnn2c(NCc3ccccc3-n3ccc(-c4ccccc4)n3)nc(N3CCC(N)CC3)nc12 [Compound 99] |

Tested on: MOLT-4
Experiment: Cellular MOLT-4 viability assay (CellTiter-Glo, 72 hours)
Type: cell-based
Settings: Homo sapiens, MOLT4 viability assay
Summary of the method: as §2

| IC50 | Structure (SMILES) |
| --- | --- |
| 1000 to 10000 nM | NC1CCN(c2nc(NCc3ccccc3-n3cccn3)n3ncc(Br)c3n2)CC1 [Compound 18] |
| 1000 to 10000 nM | CC(C)c1cnn2c(NCc3ccccc3-n3cccn3)nc(N3CCC(C)(N)CC3)nc12 [Compound 27] |
| 1000 to 10000 nM | CC(C)c1cnn2c(NCc3ccccc3-c3ncc4ccccc4n3)nc(N3CCC(N)CC3)nc12 [Compound 77] |
| 1000 to 10000 nM | CC(C)c1cnn2c(NCc3ccccc3-c3cc4ccccc4cn3)nc(N3CCC(N)CC3)nc12 [Compound 78] |
| 1000 to 10000 nM | CC(C)c1cnn2c(NCc3ccccc3-c3cnc4ccccc4n3)nc(N3CCC(N)CC3)nc12 [Compound 80] |
| 1000 to 10000 nM | CC(C)c1cnn2c(NCc3ccccc3-n3ccc(-c4ccccc4)n3)nc(N3CCC(N)CC3)nc12 [Compound 99] |
